Data from patent US20250136722A1, “CYTOTOXICITY TARGETING CHIMERAS” (GLAXOSMITHKLINE INTELLECTUAL PROPERTY DEVELOPMENT LIMITED, priority 2021, published 2025).
“And” between values parts separate entries of the source, which are not always exact repeats. Equal entries are not always repeated.

Tests used:
[1] = biological target: T1, CHOK1 cells engineered to overexpress human CCR2 (Homo sapiens, UniProt P41597); assay: Antibody dependent cellular cytotoxicity (ADCC) reporter assay (Example 199); format: cell-based; details: with anti-cotinine antibody SEQ ID NO: 11/12; CHOK1-human CCR2 target cells, Jurkat FcγRIIIa NFAT-luciferase reporter cells; 12-18 hours; read-out: ADCC Reporter Assay pEC50 (converted)
T1 construct: expressed in transfected cells; host or cells: CHOK1 cells
In short: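 CHOK1-hCCR2 target cells are co-incubated for 12–18 h with Jurkat FcγRIIIa/NFAT-luciferase reporter cells, ARM compound (1 pM–10 μM) and anti-cotinine antibody with a DE-mutant human IgG1 Fc (0.01–200 μg/mL). Luminescence is expressed as signal:background against no-compound wells; EC50 comes from nonlinear fit and is reported as pEC50, averaged across runs.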

[2] = tested on: Anti-cotinine antibody SEQ ID NO: 11 / SEQ ID NO: 12 (rabbit version); assay: Binding of rabbit anti-cotinine antibody to ARM compounds by SPR, Biacore 8k, 25° C. (Example 202)
Description: Anti-cotinine antibodies having a heavy chain sequence of SEQ ID NO: 9 and a light chain sequence of SEQ ID NO: 10 (humanized version) or a heavy chain sequence of SEQ ID NO: 11 and a light chain sequence of SEQ ID NO: 12 (rabbit version) were captured via the Fc domain to a protein A or A/G surface on flow cell 2 of a CM5 sensor chip using the Biacore 8k.
After antibody capture, a 1500 second wait step was included to reduce drift in the binding step. ARM compounds of Formula (I) were then flowed over the captured antibodies at varying top concentrations ranging from 250 nM to 4 μM (see Table 6 below for top concentration values). The top concentration was diluted 4-fold over 5 dilutions (with a 0 nM compound cycle included to blank subtract the data). Association and dissociation times of the ARMs compounds of Formula (I) varied between experiments as follows and indicated in Table 6 below: reference 1—association for 600 seconds and dissociation for 1200 seconds at 20 μl/min; reference 2—association for 240 seconds and dissociation for 300 seconds at 30 μl/min; reference 3—association for 360 seconds and dissociation for 600 seconds at 30 μl/min. Anti-cotinine antibody bound to the protein A or A/G surface was regenerated using 50 mM NaOH. Experiments were run at 25° C. at pH 7.4 using HBS-EP+ buffer using Biacore 8K control software and evaluated using Biacore Insight Evaluation software. Curves were fit with the 1:1 kinetic fit inherent to the software, utilising a local Rmax and local drift setting.
Anti-cotinine antibody was tested for binding to ARMs compounds of Formula (I) of the invention in the above assay in or more experimental runs and the results are shown in Table 6 below. Affinity is reported as a pKd value. The pKd value is the negative log of the Kd value, wherein the Kd value is the dissociation constant measured in molar (M) as noted above. For compounds tested in more than one experimental run, the pKd value is reported as an average.

[3] = tested on: CCR2 expressing cells (CD11b+Ly6c+ Hi) in peripheral blood; assay: In vivo depletion assay, flow cytometry of peripheral blood (Example 201); parameters: species or system Human CCR2 (hCCR2) knock-in mice (C57 background); details: hCCR2 knock-in mice; IV 0.1 mpk compound + 10 mpk anti-cotinine antibody (SEQ ID NO: 13/14); peripheral blood at 48 hr
Method: Stock solution preparation: Stock solutions of compounds of Formula (I) were prepared at 20 mg/mL and 100 mg/mL in DMSO for PK/PD and dose tolerability studies respectively. Stock solutions were stored at −20° C. until further usage.
Formulations preparation: On the day of experiment, the stock solution of the compound of Formula (I) was removed from storage at −20° C. and thawed at room temperature. Anti-cotinine antibody having a heavy chain sequence of SEQ ID NO: 13 and a light chain sequence of SEQ ID NO: 14 (rabbit variable region sequence with mouse IgG2a Fc domain), if required was removed from storage at −80° C. and thawed at room temperature. Antibody vials were immediately transferred into wet ice after thawing. Compounds of Formula (I) were further diluted in DMSO as per experimental requirements.
Formulation composition: The formulation composition was Saline:DMSO:PBS. Saline was added based on the quantity required and then stock solution of the compound of Formula (I) prepared in DMSO, followed by addition of antibody in PBS. Formulations were incubated at room temperature for 30 minutes before administration to the mouse. DMSO was used at 1 to 2% (v/v) in the final formulation.
After bleeding, each mouse was sacrificed by cervical dislocation.
CCR2 depletion in peripheral blood was determined by flow cytometry. Briefly, peripheral blood was collected from all animals at the end of study termination and processed. Blood samples were lysed using 1× RBC Lysis buffer and the resulting cell pellet was washed twice in FACS buffer (HBSS containing 5% FBS). Cells were subjected to Fc blocking using mouse Fc block from Biolegend (Trustain, anti-mouse CD16/32, Cat: 101319) to block non-specific binding followed by surface staining for immune markers (CD45, CD3, CD11b, Ly6C, human CCR2). Surface staining was done for 30 minutes in ice and cells were washed twice to remove unbound antibodies. Cells were stained with 7AAD to determine viability and acquired on BD FACSVerse flow cytometer. Appropriate FMO controls and single-color controls were included in the experiment for gating and compensation respectively.
Percent depletion of CD11b+Ly6c+ Hi cells and CCR2 expression for the different treatment groups was determined.

[4] = reference 3: association 360 s, dissociation 600 s at 30 μl/min, top concentration 2.50E−08 or 6.25E−09 M

Row | Compound | EC50 [1] | % Depletion of CCR2 expressing cells [3] [%] | other results
1 | CC(C)N(C)[C@@H]1CC[C@H](N2CC[C@H](Nc3ncnc4ccc(C(F)(F)F)cc34)C2=O)[C@H](NC(=O)[C@H]2CC[C@H](NC(=O)CCCO[C@H]3CC[C@H](OCCNC(=O)[C@H]4CC(=O)N(C)[C@@H]4c4cccnc4)CC3)CC2)C1 [Example 1, (2S,3S)-N-(2-(((1R,4S)-4-(4-(((1R,4R)-4-(((1R,2S,5R)-5-(Isopropyl(methyl)amino)-2-((S)-2-oxo-3-((6-(trifluoromethyl)quinazolin-4-yl)amino)pyrrolidin-1-yl)cyclohexyl)carbamoyl)cyclohexyl)amino)-4-oxobutoxy)cyclohexyl)oxy)ethyl)-1-methyl-5-oxo-2-(pyridin-3-yl)pyrrolidine-3-carboxamide] | 3.25 nM and 6.61 nM |  | ka [2, 4]: 5.57e+06 M⁻¹ s⁻¹; kd [2, 4]: 0.000156 s⁻¹; pKd [2, 4]: 10.55
2 | CN1C(=O)C[C@H](C(=O)NCCO[C@H]2CC[C@H](OCCCC(=O)N[C@H]3CC[C@H](C(=O)N[C@@H]4C[C@H](NC(C)(C)C)CC[C@@H]4N4CC[C@H](Nc5ncnc6ccc(C(F)(F)F)cc56)C4=O)CC3)CC2)[C@H]1c1cccnc1 [Example 10] | 3.16 nM |  | pKd ([2]; reference 2: association 240 s, dissociation 300 s at 30 μl/min, top concentration 1.00E−06 or 4.00E−06 M): Poor fit
3 | CN1C(=O)C[C@H](C(=O)NCCOCCOCCOCCOCCOCCC(=O)N[C@@H]2C[C@H](NC(C)(C)C)CC[C@@H]2N2CC[C@H](Nc3ncnc4ccc(C(F)(F)F)cc34)C2=O)[C@H]1c1cccnc1 [Example 37] |  | 75 | 
4 | CN1C(=O)C[C@H](C(=O)NCCOCCOCCOCCOCCOCCOCCC(=O)N[C@@H]2C[C@H](NC(C)(C)C)CC[C@@H]2N2CC[C@H](Nc3ncnc4ccc(C(F)(F)F)cc34)C2=O)[C@H]1c1cccnc1 [Example 38] |  | 84.55 | 
